From patent US12528818B2, “Compositions and methods for inhibition of RAS” (Leidos Biomedical Research, Inc., priority 2021, dated 2026)

Test system: pERK in NCI-H358 cells
Assay: Cell-based pERK HTRF assay (pERK inhibition in H358 cells)
Details: Homo sapiens, NCI-H358, 0.5 h, pERK inhibition IC50, NCI-H358 cells, 30 min incubation; read-out: PERK in H358 cell

Row | Compound | IC50 [nM]
1 | C=CC(=O)N1C[C@H](C)N(c2nc(OC[C@]3(C)CCCN3C)nc3c(F)c(-c4ccc(F)c5sc(N)c(C#N)c45)c(C(F)(F)F)cc23)C[C@H]1C [Compound 447, 4-(4-((2S,5R)-4-acryloyl-2,5-dimethylpiperazin-1-yl)-2-(((S)-1,2-dimethylpyrrolidin-2-yl)methoxy)-8-fluoro-6-(trifluoromethyl)quinazolin-7-yl)-2-amino-7-fluorobenzo[b]thiophene-3-carbonitrile] | < 100
2 | C=CC(=O)N1CCN(c2nc(OC[C@@H]3CCCN3CC(F)F)nc3c(F)c(-c4ccc(F)c5sc(N)nc45)c(C(F)(F)F)cc23)CC1 [Compound 156] | < 100
3 | C=CC(=O)N1CCC(N(CC)c2nc(OC[C@@H]3CC4(CC4)CN3C)nc3c(F)c(-c4ccc(F)c5sc(N)c(C#N)c45)c(C(F)(F)F)cc23)[C@H]1COC (some centres unmarked) [Compound 445] | < 100
4 | C=CC(=O)N1CC(Nc2nc(OC[C@@H]3C[C@@H](F)CN3C)nc3c(F)c(-c4ccc(F)c5sc(N)nc45)c(Cl)cc23)C1 [Compound 63] | 100 to 1000
5 | C=CC(=O)N1[C@@H](C)CN(c2nc(OC[C@@]34CCCN3C[C@H](OC)C4)nc3c(F)c(-c4ccc(F)c5sc(N)c(C#N)c45)c(C(F)(F)F)cc23)C[C@@H]1C (atropisomer, axis not shown) [Compound 364] | < 100
6 | CC#CC(=O)N1CCN(c2nc(OCC34CCCN3CCC4)nc3c(F)c(-c4ccc(F)c5sc(N)nc45)c(C(F)(F)F)cc23)CC1 [Compound 134] | 100 to 1000
7 | C=CC(=O)N1CC(Nc2nc(C3CCN(C)CC3)nc3c(F)c(-c4ccc(F)c5sc(N)nc45)c(Cl)cc23)C1 [Compound 60] | > 1000
8 | C=CC(=O)N1CCC(N(CC)c2nc(OC[C@@]34CCCN3C[C@H](F)C4)nc3c(C#N)c(-c4ccc(F)c5sc(N)c(C#N)c45)ccc23)[C@H]1C (stereo partly drawn) [Compound 415, 4-((1-acryloyl-2-methylpyrrolidin-3-yl)(ethyl)amino)-7-(2-amino-3-cyano-7-fluorobenzo[b]thiophen-4-yl)-2-(((2R,7aS)-2-fluorotetrahydro-1H-pyrrolizin-7a(5H)-yl)methoxy)quinazoline-8-carbonitrile] | < 100
9 | C=CC(=O)N1CCC(N(C)c2nc(OC[C@@]34CCCN3C[C@H](F)C4)nc3c(C#N)c(-c4ccc(F)c5sc(N)c(C#N)c45)ccc23)[C@H]1C (some centres unmarked) [Compound 404] | 100 to 1000
10 | C=CC(=O)N1CC(Nc2nc(OCC34CCCN3CCC4)nc3c(F)c(-c4ccc(F)c5sc(N)nc45)c(Cl)cc23)[C@H]1C (some centres unmarked) [Compound 213] | > 1000
11 | C=CC(=O)N1CCC(N(CC)c2nc(OC[C@@H]3CCCN3C)nc3c(F)c(-c4ccc(F)c5sc(N)c(C#N)c45)c(C(F)(F)F)cc23)[C@H]1COC (some centres unmarked) [Compound 438] | < 100
12 | C=CC(=O)N1C2CC1CN(c1nc(OCC34CCCN3CCC4)nc3c(F)c(-c4ccc(F)c5sc(N)nc45)c(Cl)cc13)C2 [Compound 161] | > 1000
13 | C=CC(=O)N1CC(Nc2nc(OC[C@@H]3CCCN3C)nc3c(F)c(-c4cccc5oc(N)nc45)c(Cl)cc23)C1 [Compound 88] | > 1000
14 | C=CC(=O)N1CCC(N(CC)c2nc(OC[C@@H]3CCCN3C)nc3cc(-c4ccc(F)c5sc(N)c(C#N)c45)c(C#N)cc23)[C@H]1COC (some centres unmarked) [Compound 470] | 100 to 1000
15 | C=CC(=O)N1C[C@H](C)N(c2nc(OC)nc3c(F)c(-c4ccc(F)c5sc(N)c(C#N)c45)c(C(F)(F)F)cc23)C[C@H]1C [Compound 385] | < 100
16 | C=CC(=O)N1CCC(N(CC)c2nc(OC[C@@]34CCCN3C[C@H](F)C4)nc3cc(-c4ccc(F)c5sc(N)c(C#N)c45)ccc23)[C@H]1COC (some centres unmarked) [Compound 440] | 100 to 1000
17 | C=CC(=O)N1CCN(c2nc(OC[C@@H]3CCCN3C)nc3c(F)c(-c4ccc(F)c5sc(N)nc45)c(Cl)cc23)CC1 [Compound 44] | < 100
18 | CC#CC(=O)N1CCN(c2nc(OCC34CCCN3CCC4)nc3c(F)c(-c4ccc(F)c5sc(N)nc45)c(Cl)cc23)CC1 [Compound 133] | > 1000
19 | C=CC(=O)N1CCN(c2nc(OC[C@@H]3CCCN3C)nc3c(F)c(-c4ccc(F)c5sc(N)nc45)c(OC(F)(F)F)cc23)CC1 [Compound 163] | 100 to 1000
20 | C=CC(=O)N1CCC(N(C)c2nc(OC[C@@H]3CC4(CC4)CN3C)nc3cc(-c4ccc(F)c5sc(N)c(C#N)c45)c(C#N)cc23)[C@H]1COC (some centres unmarked) [Compound 446] | 100 to 1000

Next, values leading:

Row | IC50 [nM] | Compound
21 | < 100 | C=CC(=O)N1C[C@H](C)N(c2nc(OC[C@@]34CCCN3C[C@H](F)C4)nc3c(F)c(-c4ccc(F)c5sc(N)nc45)c(Cl)cc23)C[C@H]1C [Compound 266]
22 | < 100 | C=CC(=O)N1CC[C@@H](N(C)c2nc(OC[C@@]34CCCN3C[C@H](F)C4)nc3cc(-c4ccc(F)c5sc(N)c(C#N)c45)c(C(F)(F)F)cc23)C1 [Compound 306]
23 | 100 to 1000 | C=CC(=O)N1CC(N(C)c2nc(OCC34CCCN3CC(F)(F)C4)nc3c(F)c(-c4ccc(F)c5sc(N)nc45)c(C(F)(F)F)cc23)C1 (centres unmarked) [Compound 187]
24 | < 100 | C=CC(=O)N1CCN(c2nc(OC[C@@]34CCCN3C[C@H](F)C4)nc3c(F)c(-c4ccc(F)c5sc(N)c(C#N)c45)c(C(F)(F)F)cc23)CC1 [Compound 345]
25 | < 100 | C=CC(=O)N1CC[C@@H](N(C)c2nc(OC[C@@]34CCCN3C[C@H](F)C4)nc3c(F)c(-c4ccc(F)c5sc(N)c(C#N)c45)c(Cl)cc23)C1 [Compound 342]
26 | < 100 | C=CC(=O)N1C[C@@H](F)[C@@H](N(CC)c2nc(OC[C@@]34CCCN3C[C@H](F)C4)nc3cc(-c4ccc(F)c5sc(N)c(C#N)c45)c(Cl)cc23)C1 [Compound 370]
27 | < 100 | C=CC(=O)N1CC[C@@H](N(C)c2nc(OC[C@@]34CCCN3C[C@H](F)C4)nc3c(F)c(-c4ccc(F)c5sc(N)nc45)c(C(F)(F)F)cc23)C1 (single isomer, unassigned) [Compound 239]
28 | < 100 | C=CC(=O)N1CC[C@@H](N(C)c2nc(OC[C@@]34CCCN3C[C@H](F)C4)nc3cc(-c4c(F)cc(F)c5sc(N)nc45)c(C(F)(F)F)cc23)C1 [Compound 305]
29 | 100 to 1000 | C=CC(=O)N1CC[C@H](N(C)c2nc(OC[C@@]34CCCN3C[C@H](F)C4)nc3c(F)c(-c4ccc(F)c5sc(N)nc45)c(C(F)(F)F)cc23)C1 [Compound 188]
30 | < 100 | C=CC(=O)N1CC[C@@H](N(C)c2nc(OC[C@@]34CCCN3C[C@H](F)C4)nc3c(F)c(-c4ccc(F)c5sc(N)c(C#N)c45)c(C(F)(F)F)cc23)[C@@H]1C [Compound 469]
31 | < 100 | C=CC(=O)N1[C@H](C)CN(c2nc(OC[C@]34CCCN3C[C@H](F)C4)nc3c(F)c(-c4ccc(F)c5sc(N)nc45)c(C(F)(F)F)cc23)C[C@@H]1C [Compound 215]
32 | < 100 | C=CC(=O)N1CC[C@@H](N(C)c2nc(OC[C@@]34CCCN3C[C@H](F)C4)nc3c(F)c(-c4ccc(F)c5sc(N)nc45)c(C(F)(F)F)cc23)C1 [Compound 198]
33 | < 100 | C=CC(=O)N1C[C@H](C)[C@@H](N(C)c2nc(OC[C@@]34CCCN3C[C@H](F)C4)nc3c(F)c(-c4ccc(F)c5sc(N)nc45)c(C(F)(F)F)cc23)C1 [Compound 296]
34 | 100 to 1000 | C=CC(=O)N1CC[C@H](N(C)c2nc(OC[C@@]34CCCN3C[C@H](F)C4)nc3c(F)c(-c4ccc(F)c5sc(N)c(C#N)c45)c(F)cc23)C1 [Compound 336]
35 | < 100 | C=CC(=O)N1CC[C@@H](N(C)c2nc(OC[C@@]34CCCN3C[C@H](F)C4)nc3c(F)c(-c4ccc(F)c5sc(N)c(C#N)c45)c(F)cc23)C1 [Compound 343]
36 | 100 to 1000 | C=C(F)C(=O)N1CCN(c2nc(OC[C@@]34CCCN3C[C@H](F)C4)nc3c(F)c(-c4ccc(F)c5sc(N)nc45)c(C(F)(F)F)cc23)C[C@H]1C [Compound 208]
37 | < 100 | C=CC(=O)N1C[C@@H](F)[C@@H](N(C)c2nc(OC[C@@]34CCCN3C[C@H](F)C4)nc3c(F)c(-c4ccc(F)c5sc(N)c(C#N)c45)ccc23)C1 [Compound 359]
38 | 100 to 1000 | C=CC(=O)N1CC[C@@H](N(CC)c2nc(OC[C@@]34CCCN3C[C@H](F)C4)nc3cc(-c4ccc(F)c5sc(N)c(C#N)c45)c(F)cc23)[C@H]1COC [Compound 437]
39 | < 100 | C=CC(=O)N1CC[C@@H](N(CC)c2nc(OC[C@@]34CCCN3C[C@H](F)C4)nc3c(F)c(-c4ccc(F)c5sc(N)c(C#N)c45)c(C(F)(F)F)cc23)[C@H]1COC [Compound 442]
40 | < 100 | C=CC(=O)N1CC[C@@H](N(C)c2nc(OC[C@@]34CCCN3C[C@H](F)C4)nc3c(F)c(-c4ccc(F)c5sc(N)c(C#N)c45)ccc23)[C@H]1C [Compound 358, 4-(4-(((2R,3R)-1-acryloyl-2-methylpyrrolidin-3-yl)(methyl)amino)-8-fluoro-2-(((2R,7aS)-2-fluorotetrahydro-1H-pyrrolizin-7a(5H)-yl)methoxy)quinazolin-7-yl)-2-amino-7-fluorobenzo[b]thiophene-3-carbonitrile]
41 | < 100 | C=CC(=O)N1C[C@@H](F)[C@@H](N(C)c2nc(OC[C@@]34CCCN3C[C@H](F)C4)nc3c(F)c(-c4ccc(F)c5sc(N)c(C#N)c45)c(C(F)(F)F)cc23)C1 [Compound 316]
42 | < 100 | C=CC(=O)N1CC[C@@H](N(C)c2nc(OC[C@@]34CCCN3C[C@H](F)C4)nc3cc(-c4ccc(F)c5sc(N)c(C#N)c45)c(C(F)(F)F)cc23)[C@H]1C [Compound 354, 4-(4-(((2R,3R)-1-acryloyl-2-methylpyrrolidin-3-yl)(methyl)amino)-2-(((2R,7aS)-2-fluorotetrahydro-1H-pyrrolizin-7a(5H)-yl)methoxy)-6-(trifluoromethyl)quinazolin-7-yl)-2-amino-7-fluorobenzo[b]thiophene-3-carbonitrile]
43 | > 1000 | C=CC(=O)N1CC[C@@H](N(C)c2c(C#N)c(OC[C@@]34CCCN3C[C@H](F)C4)nc3c(F)c(-c4ccc(F)c5sc(N)nc45)c(Cl)cc23)C1 (atropisomer, axis not shown) [Compound 234]

Same assay, conditions: pERK inhibition IC50, NCI-H358 cells, 30 min incubation; read-out: PERK in H358 cell

Row | IC50 [nM] | Compound
44 | 100 to 1000 | C=CC(=O)N1C[C@H](C)N(c2nc(OC[C@@]34CCCN3C[C@H](F)C4)nc3c(F)c(-c4ccc(F)c5sc(N)c(C#N)c45)c(C(F)(F)F)cc23)C[C@H]1C (single isomer, unassigned) [Compound 314]
